The experiment concerns the target Protein Tat (Human immunodeficiency virus type 1 group M subtype B (isolate HXB2)) (UniProt P04608). Kind of experiment: HIV-1 Tat–TAR interaction blockers – biochemical, fluorescence polarization, FAM-labeled TAR RNA, counter-screen for Vif-APOBEC3G degradation inhibitor project, dose response (AID 1117361). Conditions: Tat-TAR RNA binding. In general terms: In fluorescence polarisation assays a small probe gives low polarisation when free and higher when bound to something large.
Chain of Protein Tat (Human immunodeficiency virus type 1 group M subtype B (isolate HXB2)) (P04608 whole entry, looked up): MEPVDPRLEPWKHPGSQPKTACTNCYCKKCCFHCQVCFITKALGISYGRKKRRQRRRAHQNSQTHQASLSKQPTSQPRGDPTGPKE
Consider `CC(=O)Nc1cccc(Oc2ncnc3scc(-c4ccccc4)c23)c1`, for which the IC50 (usually the point on the concentration scale where inhibition reaches its midpoint) is 31 µM.

As to `Cc1cccc(NC(=O)CSc2nnc(-c3ccco3)c(-c3ccco3)n2)c1C`, the IC50 is 15 µM.

For the molecule `N=C1/C(=C/c2ccc(Br)o2)C(=O)N=C2SC(CC(=O)N3CCCC3)=NN12`, the IC50 was 53.7 µM.

Turning to `O=C1C2C3C=CC(C3)C2C(=O)N1CNc1ccc(O)cc1` (stereo unspecified), the IC50 is 25.7 µM. With `O=[N+]([O-])c1cc2ccccc2c(O)c1O` the figure was 56.8 µM; with `O=C1CC(c2ccco2)CC(O)=C1C=Nc1ccc(Br)cc1` (stereo unspecified), 77.6 µM; with `O=C(Nc1ccc(F)cc1)C(c1ccccc1)N1CCN(S(=O)(=O)c2ccc3ccccc3c2)CC1` (stereo unspecified), 1.23 µM. To `Cc1n[nH]c(=S)n(NC(=O)/C=C/C(=O)Nn2c(=S)[nH]nc(C)c2=O)c1=O` belongs 18.2 µM; to `COc1ccccc1NC(=O)CSc1nnc(Cc2cc(=O)[nH]c(=O)[nH]2)n1-c1ccccc1`, 66.5 µM; to `COCCNC(=O)COC(=O)c1[nH]c(C)c(C(C)=O)c1C`, 35.4 µM. To `O=C1NC(=O)N(Cc2ccco2)C(=O)/C1=C/C=C/c1ccco1` belongs 1.95 µM; to `O=C(O)C1=NN(c2cc(Cl)c(S(=O)(=O)O)cc2Cl)C(=O)C1`, 30.9 µM; to `COC1=C(N)C(=O)c2nc(-c3nc(C(=O)O)c(C)c(-c4ccc(OC)c(OC)c4O)c3N)ccc2C1=O`, 42.1 µM. Turning to `COc1ccc2ccccc2c1C1CC(=O)N2CN(Cc3ccco3)CSC2=C1C#N` (stereo unspecified), the half-maximal inhibitory concentration (IC50) is 67.7 µM. Turning to `CC(=O)C1=C(C)NC(C)=C(C(C)=O)C1c1cccs1`, the IC50 was 91.4 µM. In the case of `CC(N=Cc1cccc(O)c1O)c1ccccc1` (stereo unspecified), the IC50 was 6.96 µM. With `Oc1ccc(NCc2ccccc2OCc2ccccc2)cc1` the figure was 51.6 µM. With `COC(=O)c1ccc(C(=O)OC)c(NC(=O)Cc2cccs2)c1` the figure was 64.8 µM. To `Cc1ccc(N/N=C/c2c(C)c(C#N)c(=O)n(C)c2O)cc1C` belongs 11.9 µM; to `N#Cc1c(NC(=O)CSc2ncnc3sccc23)oc(-c2ccco2)c1-c1ccco1`, 2.52 µM; to `O=C(Nc1ccc2nc(-c3ccco3)c(-c3ccco3)nc2c1)N1CCCCCC1`, 3.56 µM. On to `O=C(O)c1ccc2c(c1)C1C(Cl)C(Sc3ccccc3[N+](=O)[O-])CC1C(c1cccc([N+](=O)[O-])c1)N2` (stereo unspecified), for which the IC50 was 6.3 µM.

As for `CCCC(=Nc1ccc(N)cc1)C1=C(O)C(C(=O)OC)C(C)(C)CC1=O` (stereo unspecified), the IC50 is 6.88 µM. To `Oc1ccc(N=Cc2sc3ccccc3c2Cl)cc1` belongs 62.3 µM; to `Cc1ccc([C@@H]2C3COCC=C3C(C#N)=C(N)C2(C#N)C#N)o1` (stereo partly specified), 4.05 µM.

`CCc1ccc(NC(=O)N(CCN2CCOCC2)Cc2ccc3c(c2)CCCN3CC)cc1`: the IC50 is 74.5 µM.

On to `Cc1cccc(C)c1NC(=O)CSc1nnc(-c2ccco2)c(-c2ccco2)n1`, for which the IC50 was 6.43 µM. With `O=C(NC1CCC(C(=O)O)CC1)OCc1ccccc1` (stereo unspecified) the figure was 79.8 µM. With `O=C1/C(=C/c2ccco2)SC(=S)N1C1CCS(=O)(=O)C1` (stereo unspecified) the figure was 5.05 µM. To `CCN1CCN(C2=NC(=O)/C(=C/c3ccc(C)o3)S2)CC1` belongs 1.47 µM; to `CCOC(=O)C1CCCN(C(=O)c2cc(-c3ccco3)nc3ccccc23)C1` (stereo unspecified), 27.8 µM; to `COc1ccc2c(c1)n([O-])c1c([n+]2=O)CCC1`, 52.1 µM. As to `O=C(c1cc(-c2ccco2)on1)N1CCN(c2ccccc2)CC1`, the IC50 was 18.6 µM. Consider `O=C(O)CCCCC1CCSS1` (stereo unspecified), for which the IC50 is 5.89 µM. With `O=C1NC(=S)NC1=Cc1ccco1` the figure was 35.7 µM; with `Cc1cc(O)ccc1-c1cnc2ccccc2n1`, 80.8 µM; with `CC(=O)N1CCN(c2nc(-c3ccco3)c3c(c2C#N)CC(C)(C)SC3)CC1`, 58.8 µM. With `O=C1/C(=C\c2ccco2)SC(=S)N1c1ccccc1` the figure was 9.64 µM; with `CC(=O)OC1COC(n2ccc3ccccc32)C(OC(C)=O)C1OC(C)=O` (stereo unspecified), 88.1 µM; with `O=c1c(-c2cc3ccccc3o2)[n+]([O-])c2ccccc2n1OCc1ccccn1`, 34.5 µM. With `Cc1cc(-c2nc3c4c5c(sc4[nH]c(=O)n3n2)CCC5)c(C)o1` the figure was 3.66 µM. Turning to `COc1cc2[nH]c(Cl)c([N+](=O)[O-])c2cc1OC`, the IC50 was 24.3 µM. With `CC(C)N1C(=O)CC(Nc2ccc(N3CCOCC3)cc2)C1=O` (stereo unspecified) the figure was 16 µM. To `CC(C)CNC1=CC(=O)CC(c2ccco2)C1` (stereo unspecified) belongs 31.3 µM; to `CCN(CC)c1ccc(NC2CC(=O)N(CCc3ccc(OC)cc3)C2=O)cc1` (stereo unspecified), 27.3 µM; to `Oc1ccc(/C=N/N2CCOCC2)c(O)c1O`, 14 µM. To `COc1ccc2nc(-c3ccco3)c(-c3ccco3)nc2c1` belongs 3.13 µM; to `COc1ccc(CCNC(=O)c2ccc3nc(-c4ccco4)c(-c4ccco4)nc3c2)cc1OC`, 4.32 µM. As to `CCOC(=O)c1sc2nc(CC(=O)OC)nc(NCc3ccco3)c2c1C`, the IC50 was 16.1 µM. With `O=C(O)c1ccc(-n2cccc2/C=N\NC(=O)c2cc3cc(Br)ccc3o2)cc1` the figure was 13.8 µM. Take `Oc1ccc2c(c1)C1CCCC1(N1CCOCC1)O2` (stereo unspecified): the IC50 was 23.1 µM. Regarding `CC(C)c1ccc(N2C(=O)NC(=O)/C(=C\C=C\c3ccco3)C2=O)cc1`, the IC50 was 34.2 µM.

Regarding `COc1cc(NCCCCCCN)c2ncccc2c1OC`, the IC50 was 56.7 µM.

Regarding `CC1=CC2(O)OCCN(CCO)C2=CC1=O` (stereo unspecified), the IC50 is 34.5 µM. With `C[c-]1[c-](C)[c-](C)[c-](C)[c-]1C.[Fe].c1cc2nccc(N3CCCC3)[c-]2c1` (stereo unspecified), the IC50 was 2.81 µM. To `O=C(Nc1cc(Cl)cc(Cl)c1)c1coc(=O)c(Br)c1` belongs 23.5 µM; to `O=C1C=Cc2ccccc2C1=O`, 30.5 µM; to `Cc1cc(C(=O)CSc2nnnn2C)c(C)n1CCc1ccc(Cl)cc1`, 84.6 µM. To `CCc1ccccc1NC(=O)c1cccc(NC(=O)/C=C/c2ccco2)c1` belongs 26.6 µM; to `O=c1oc2c3c4c(cc2s1)CCCN4CCC3`, 26 µM; to `O=C1CC(Nc2ccc(N3CCOCC3)cc2)C(=O)N1Cc1ccccc1` (stereo unspecified), 15.4 µM. As to `CC(C)(C)C1C/C(=C/c2ccco2)C(=O)/C(=C/c2ccco2)C1` (stereo unspecified), the IC50 was 7.08 µM. With `O=C(O)C1Nc2ccc(Br)cc2C2C=CCC12` (stereo unspecified) the figure was 3.73 µM. To `O=C(Cc1cccs1)N/N=C/C=C/c1ccco1` belongs 8.22 µM; to `CCOc1ccc(NCC2CCOC(C)(C)C2)cc1` (stereo unspecified), 64.8 µM; to `CC(=O)NC1=NC(=O)/C(=C/c2cc(C)n(-c3cccc(C(=O)O)c3)c2C)S1`, 29.7 µM. To `Cc1cc(C)nc(N2CCC(C(=O)O)CC2)n1` belongs 72.8 µM; to `O=[N+]([O-])c1cc2oc3c(c2c(C=NCc2ccncc2)c1O)CCCC3`, 13.4 µM; to `CC(=O)c1ccc2c(c1)C1C=CCC1C(C(=O)O)N2` (stereo unspecified), 2.47 µM. On to `CCOc1cc(N2CCOCC2)c(OCC)cc1NC(=O)CSc1ncn[nH]1`, for which the half-maximal inhibitory concentration (IC50) is 35.7 µM. In the case of `CCCC(=O)N(CCc1ccc(OC)cc1)Cc1nc2ccccc2c(=O)[nH]1`, the IC50 is 71.8 µM. To `Cc1c(Cl)cccc1NS(=O)(=O)c1ccc2c(c1)C1C=CCC1C(c1ccc(C(=O)O)cc1)N2` (stereo unspecified) belongs 8.54 µM; to `Cc1ccc(N2C(=O)/C(=C\c3ccco3)SC2=S)cc1`, 36 µM; to `Nc1ncnc2oc(-c3ccco3)c(-c3ccco3)c12`, 3.36 µM. Turning to `C=CCn1c(C)cc(-c2csc(N)n2)c1C`, the IC50 is 5.49 µM. Consider `COC(=O)/C(=N/Nc1ccccc1C)N1CCCc2ccccc21`, for which the half-maximal inhibitory concentration (IC50) was 29.2 µM.

For the molecule `CCOC(=O)C1=C(N)n2c(s/c(=C\c3ccco3)c2=O)=C(C(=O)OCC)C1c1ccco1` (stereo unspecified), the IC50 is 7.85 µM. With `O=C(CC1C(=O)NCCN1Cc1ccc(F)cc1)NCCN1CCCc2ccccc21` (stereo unspecified), the IC50 is 22.1 µM. With `Cc1ccccc1Cc1c(C)nc2c(C(=O)NCc3ccc4c(c3)OCO4)cnn2c1C` the figure was 1.06 µM; with `O=c1c2cc(N3CCOCC3)ccc2[nH]c(=S)n1Cc1ccco1`, 38.7 µM; with `Cc1cc(C(=O)CSc2nnnn2-c2ccccc2)c(C)n1CC1CCCO1` (stereo unspecified), 35 µM.

For the molecule `O=C(O)C1Nc2c(Cl)cc(Cl)cc2C2C=CCC12` (stereo unspecified), the IC50 was 94.4 µM.

`COc1ccc(-c2cc(C(=O)N/N=C/c3ccc(OC)c(COCC(F)(F)C(F)F)c3)c3ccccc3n2)c(OC)c1`: the IC50 was 99.4 µM. Consider `O=S(=O)(O)c1cc(O)c(N=Nc2ccc(O)cc2O)c2ccccc12`, for which the IC50 was 51.3 µM.

Regarding `CCOC1(OCC)N=C(N)C2(C#N)C(c3cccc(OC)c3OC)C12C#N` (stereo unspecified), the IC50 was 1.59 µM. To `O=C1CC(=O)N(Cc2ccco2)C(=S)N1` belongs 1.56 µM; to `O=C(NCc1ccccc1Cl)c1csc2c1CCCCC2`, 27.2 µM. With `Oc1ccc(-c2cn3c(n2)SCC3)cc1O` the figure was 71.9 µM; with `Cc1ccc2c(c1)C1C=CCC1C(C(=O)O)N2` (stereo unspecified), 3.75 µM. With `O=CN/C=C/c1cc(O)ccc1O` the figure was 11 µM; with `Nc1ccc2c(O)cc(S(=O)(=O)O)cc2c1`, 48 µM. In the case of `COc1cccc(NS(=O)(=O)c2ccc3c(c2)C2C=CCC2C(c2ccc(C(=O)O)cc2)N3)c1` (stereo unspecified), the IC50 is 3.59 µM. To `c1coc(-c2nc3ccccc3nc2-c2ccco2)c1` belongs 6.44 µM; to `O=C(O)C1Nc2c(O)cc(Cl)c([N+](=O)[O-])c2C2C=CCC12` (stereo unspecified), 1.64 µM. Take `Cc1ccc(/C=c2\sc3nc(-c4cccs4)nn3c2=O)o1`: the IC50 was 13.6 µM. Turning to `O=C(N/N=C/c1ccc(O)c(O)c1O)/C(=C/c1ccc([N+](=O)[O-])cc1)NC(=O)c1ccccc1`, the IC50 is 7.17 µM. With `O=C(O)CSc1c2c(nc3cc(C(=O)N4CCOCC4)ccc13)CCCC2` the figure was 12.2 µM; with `O=C(O)CC(C(=O)O)N1C(=O)/C(=C/c2ccc(-c3nc4ccccc4s3)o2)SC1=S` (stereo unspecified), 11.3 µM. With `COc1ccc2c(c1)C(=O)c1ccccc1CO2` the figure was 46.3 µM; with `O=[n+]1c2c(n([O-])c3cc(Cl)ccc31)CCCC2`, 42.9 µM. With `O=C(/C=C/c1cccs1)Nc1ccc(Br)cn1` the figure was 31.4 µM.

The values above are taken from PubChem BioAssay AID1117361 (Southern Research Institute, 2015).
